The test system of series [1] is Mycobacterium tuberculosis. Kind of series: Antimycobacterial activity against drug-sensitive Mycobacterium tuberculosis H37Rv measured after 7 days by resazurin dye-based assay. The class given is functional. As to conditions: 168 h. In general terms: The colour change of resazurin is a common sign of viable cells or microbes.
For series [2], the system named is ARPE-19. Kind of series: Cytotoxicity against human ARPE19 cells assessed as effect on cell viability at 100 uM after 48 hrs in normoxic condition by MTT assay. It is filed as cell-based. Particulars: arpe-19, 48 h. On the technique in general: Formazan colour is commonly taken as a measure of viable cells.
The next series concerns Pseudomonas aeruginosa. Kind of series: Antibacterial activity against Pseudomonas aeruginosa assessed as bacterial growth inhibition zone diameter at 5 ug after 18 hrs by Kirby-Bauer disk diffusion method. It is filed as functional. Particulars: read-out: DIZ. (In general: Agar diffusion results depend on both activity and mobility in agar.)
Series [3] is described as follows: Toxicity in po dosed C57BL6 mouse administered via metal gavage measured daily over 14 days. It is filed as organism-based. Particulars: in vivo.
Series [4] in a line: Toxicity in C57BL6 mouse assessed as mortality at 400 mg/kg, po administered via metal gavage measured daily over 14 days. It is filed as organism-based. Particulars: in vivo, 336 h.
For another series, the system named is Staphylococcus aureus. Kind of series: Antibacterial activity against Staphylococcus aureus assessed as bacterial growth inhibition zone diameter at 5 ug after 18 hrs by Kirby-Bauer disk diffusion method. It is filed as functional. Particulars: read-out: DIZ.
A further series relates to Enterococcus faecium. Kind of series: Antibacterial activity against Enterococcus faecium assessed as bacterial growth inhibition zone diameter at 5 ug after 18 hrs by Kirby-Bauer disk diffusion method. As to conditions: read-out: DIZ. The class given is functional.
A further series deals with Klebsiella aerogenes. In words: Antibacterial activity against Enterobacter aerogenes assessed as bacterial growth inhibition zone diameter at 5 ug after 18 hrs by Kirby-Bauer disk diffusion method. The class given is functional. As to conditions: read-out: DIZ.
For a further series, the system named is Klebsiella pneumoniae. In words: Antibacterial activity against Klebsiella pneumoniae assessed as bacterial growth inhibition zone diameter at 5 ug after 18 hrs by Kirby-Bauer disk diffusion method. It is filed as functional. Particulars: read-out: DIZ.
A further series relates to Acinetobacter baumannii. In words: Antibacterial activity against Acinetobacter baumannii assessed as bacterial growth inhibition zone diameter at 5 ug after 18 hrs by Kirby-Bauer disk diffusion method. The class given is functional. Particulars: read-out: DIZ.
Series [5] deals with ARPE-19. In words: Cytotoxicity against human ARPE19 cells assessed as effect on cell viability at 10 to 100 uM after 48 hrs in normoxic condition by MTT assay. The class given is cell-based. As to conditions: arpe-19, 48 h.
Series [6] can be described thus: Toxicity in C57BL6 mouse assessed as mortality at 900 mg/kg, po administered via metal gavage measured daily over 14 days. Particulars: in vivo, 336 h. It is filed as organism-based.

Molecules are shown by their SMILES. Values after ≈ are worked out from the molar mass of the structure shown.

By MIC is commonly meant the least concentration at which growth counts as inhibited. The low end stands for inhibition by little substance, the high end for a need for much substance. The term LD50 denotes the dose at which mortality reaches 50%. Read a high LD50 as lower toxicity.

Turning to `COc1ccc(CC2CCOC3(CCN(C(=O)c4ccc([N+](=O)[O-])o4)CC3)C2)cc1` (centres undefined), in series [1], the MIC came to 3.1 µg/mL (≈ 7.48 µM). For the same compound, the Activity entry in the series on ARPE-19 [2] is given as “Toxic”. In series [1], `Cc1cccc(S(=O)(=O)NC2CCOC3(CCN(C(=O)c4ccc([N+](=O)[O-])o4)CC3)C2)c1` (centres undefined) showed an MIC of 50 µg/mL (≈ 108 µM). For the compound `CS(=O)(=O)NC1CCOC2(CCN(C(=O)c3ccc([N+](=O)[O-])o3)CC2)C1` (centres undefined), in series [1], the MIC was > 100 µg/mL. On to `Cl.NC1CCOC2(CCN(C(=O)c3ccc([N+](=O)[O-])o3)CC2)C1` (centres undefined), for which the minimal inhibitory concentration (MIC) in [1] was > 100 µg/mL. On the same count and under the same terms, the value for `O=C(c1ccc([N+](=O)[O-])o1)N1CCC2(CC1)CC(NS(=O)(=O)c1ccc(F)cc1)CCO2` (centres undefined) was 50 µg/mL (≈ 107 µM). Turning to `CNC(=O)CC1CCOC2(CCN(C(=O)c3ccc([N+](=O)[O-])o3)CC2)C1` (centres undefined), in series [1], the MIC is > 100 µg/mL. Consider `O=C(c1ccc([N+](=O)[O-])o1)N1CCC2(CC1)CC(Cc1nc(-c3cccnc3)no1)CCO2` (centres undefined), for which the zone of inhibition at 5 µg/disc with Pseudomonas aeruginosa, in the series with Staphylococcus aureus, in the series with Enterococcus faecium, in the series on Klebsiella aerogenes, with Klebsiella pneumoniae and with Acinetobacter baumannii was 0 mm throughout. The same compound showed an LD50 at 336 h in series [3] (C57BL6, mouse) of 617 mg/kg. For the same compound, the LD16 in series [3] (mouse, 336 h) was 198 mg/kg. The LD84 in series [3] (mouse, 336 h) was determined as 787.5 mg/kg. This compound also yielded an LD100 in series [3] (mouse, 336 h) of 900 mg/kg. For the same compound, the Activity result in series [4] is listed as “Non-Toxic”; in the series with ARPE-19 [5], “Non-Toxic”; in series [6], “Toxic”. The MIC in series [1] stood at 1.6 µg/mL (≈ 3.53 µM).

`O=C(c1ccc([N+](=O)[O-])o1)N1CCC2(CCCCO2)CC1` displayed an MIC in series [1] of 3.1 µg/mL (≈ 10.5 µM). Further, the Activity entry in the series with ARPE-19 [5] was “Non-Toxic”. On to `O=C(c1ccc([N+](=O)[O-])o1)N1CCC2(CC1)CC(Oc1ccncc1)CCO2` (centres undefined), for which it took 25 µg/mL (≈ 64.5 µM) to inhibit growth in series [1] (MIC). With `COCCc1noc(CC2CCOC3(CCN(C(=O)c4ccc([N+](=O)[O-])o4)CC3)C2)n1` (centres undefined), the MIC in series [1] came to 6.2 µg/mL (≈ 14.3 µM). Also, the Activity entry in the series on ARPE-19 [5] is on record as “Non-Toxic”.

`O=C(c1ccc([N+](=O)[O-])o1)N1CCC2(CC1)CC(NS(=O)(=O)c1ccc(Br)cc1)CCO2` (centres undefined) registered an MIC in series [1] of 25 µg/mL (≈ 47.3 µM). On to `O=C(c1ccc([N+](=O)[O-])o1)N1CCC2(CC1)CC(Cc1ccc(F)cc1)CCO2` (centres undefined), for which 12.5 µg/mL (≈ 31.1 µM) was the least that counted as inhibitory in series [1] (MIC). Take `O=C(c1ccc([N+](=O)[O-])o1)N1CCC2(CC1)CC(NS(=O)(=O)c1ccccc1F)CCO2` (centres undefined): the lowest concentration to inhibit growth in series [1] (MIC) was 50 µg/mL (≈ 107 µM). The same measure, in the same setting: then `CCOC1CCOC2(CCN(C(=O)c3ccc([N+](=O)[O-])o3)CC2)C1` (centres undefined), with 50 µg/mL (≈ 148 µM).

Consider `O=C(c1ccc([N+](=O)[O-])o1)N1CCC2(CC1)CC(NS(=O)(=O)c1ccccc1)CCO2` (centres undefined), for which it took 50 µg/mL (≈ 111 µM) to inhibit growth in [1] (MIC). The compound `O=C(c1ccc([N+](=O)[O-])o1)N1CCC2(CC1)CC(OCc1ccc(F)cc1)CCO2` (centres undefined) registered an MIC in series [1] of 3.1 µg/mL (≈ 7.41 µM). The Activity entry in the series with ARPE-19 [5] is on record as “Non-Toxic”.

For `O=C(c1ccc([N+](=O)[O-])o1)N1CCC2(CC1)CC(OCC1CC1)CCO2` (centres undefined), the lowest concentration to inhibit growth in series [1] (MIC) was 25 µg/mL (≈ 68.6 µM). `O=C(c1ccc([N+](=O)[O-])o1)N1CCC2(CC1)CC(N1CCOCC1)CCO2` (centres undefined): in series [1], the MIC is > 100 µg/mL. With `O=C(c1ccc([N+](=O)[O-])o1)N1CCC2(CC1)CC(Cc1nc(C3CC3)no1)CCO2` (centres undefined), 3.1 µg/mL (≈ 7.44 µM) was the least that counted as inhibitory in series [1] (MIC). Also, the Activity entry in the series with ARPE-19 [5] was “Non-Toxic”.

With `CC(C)(C)OC(=O)NC1CCOC2(CCN(C(=O)c3ccc([N+](=O)[O-])o3)CC2)C1` (centres undefined), the MIC in series [1] was determined as 25 µg/mL (≈ 61.1 µM). The same measure, in the same setting: the value for `CN(Cc1ccccc1)C(=O)CC1CCOC2(CCN(C(=O)c3ccc([N+](=O)[O-])o3)CC2)C1` (centres undefined) was 12.5 µg/mL (≈ 27.4 µM). `Cc1ccc(CC2CCOC3(CCN(C(=O)c4ccc([N+](=O)[O-])o4)CC3)C2)cc1` (centres undefined) had an MIC in series [1] of 3.1 µg/mL (≈ 7.78 µM). The Activity entry in the series on ARPE-19 [2] is “Toxic”. `COc1ccc(S(=O)(=O)NC2CCOC3(CCN(C(=O)c4ccc([N+](=O)[O-])o4)CC3)C2)cc1` (centres undefined) registered an MIC in series [1] of 50 µg/mL (≈ 104 µM). In series [1], `O=C(c1ccc([N+](=O)[O-])o1)N1CCC2(CC1)CC(NS(=O)(=O)c1ccc(F)c(Cl)c1)CCO2` (centres undefined) displayed an MIC of 25 µg/mL (≈ 49.8 µM). For the compound `O=C(O)c1cn(C2CC2)c2cc(N3CCNCC3)c(F)cc2c1=O` [CIPROFLOXACIN], the zone of inhibition at 5 µg/disc in the series with Pseudomonas aeruginosa is 23 mm; with Staphylococcus aureus it was 23 mm; with Enterococcus faecium, 23 mm; in the series with Klebsiella aerogenes, 25 mm; in the series on Klebsiella pneumoniae, 25 mm; with Acinetobacter baumannii it was 30 mm.

The record behind these values is ChEMBL document CHEMBL4316589, “Attachment of a 5-nitrofuroyl moiety to spirocyclic piperidines produces non-toxic nitrofurans that are efficacious in vitro against multidrug-resistant Mycobacterium tuberculosis” (Eur J Med Chem, 2019).
